According to patent US20230174554A1, “SOLID FORM OF MACROCYCLIC COMPOUND, PREPARATION THEREFOR AND USE THEREOF” (Shenzhen TargetRx. Inc., priority 2020, published 2023):
Values after ≈ are worked out from the molar mass of the structure shown.

What was measured:
Assay type in all cases: physicochemical
[1] = Accelerated stability study of the free base and crystalline salts (40° C./75% RH and 60° C., HPLC and XRPD)
Description: The crystals were tested for HPLC and XRPD in different time points.

[2] = Dynamic moisture adsorption and desorption analysis (DVS), hygroscopicity, XRPD after test
Description: The samples were tested for hygroscopicity using DVS Intrinsic (SMS, UK). 30-50 mg of a sample was placed into a sample pan, and the change of sample mass with humidity at 25° C. was recorded. The instrument parameters were:
After the hygroscopicity test was completed, the crystal form of the sample was tested by XRPD.

[3] = Solubility and stability of the free base and crystalline salts in water, SGF, FaSSIF and FeSSIF; conditions: for Crystal form / crystallinity in the vehicle: XRPD
Description: The solubility and stability of compound A crystal form, compound A maleate crystal form I and compound A acetate crystal form I in water, SGF (simulated gastric fluid), FaSSIF (simulated intestinal fluid in fasted state) and FeSSIF (simulated intestinal fluid in fed state) were studied.

[4] = Solubility of the starting material (compound A crystal form I) in different solvents
[5] = Stability influencing factor tests of compound A crystal form I (high temperature, high humidity, illumination)
Description: Stability influencing factor tests were carried out on the samples of compound A crystal form I. The corresponding placement conditions and test results are listed in Table 5.

[6] = Competitive slurrying testing at room temperature (trans-crystallization); conditions: isobutanol, isopropanol and methyl tert-butyl ether, one day
Description: 10 mg of compound A crystal form I, crystal form IV, crystal form V and crystal form VI were added to 500 μL of three different solvent systems (isobutanol, isopropanol and methyl tert-butyl ether), respectively. The mixture was slurried at room temperature for one day. The solids were dried at 50° C. under vacuum overnight and characterized by XRPD.

[7] = Heating study to 190° C. with XRPD (trans-crystallization); conditions: heated to 190° C.
Description: A certain amount of compound A crystal form V and VI were weighed, heated to 190° C. and then characterized by XRPD.

[8] = FaSSIF (simulated intestinal fluid in fasted state), 37 °C, fassif, thermodynamic from solid, sample 10 mg/ml
[9] = FeSSIF (simulated intestinal fluid in fed state), 37 °C, fessif, thermodynamic from solid, sample 10 mg/ml
[10] = SGF (simulated gastric fluid), 37 °C, simulated gastric fluid, thermodynamic from solid, SGF, sample 10 mg/ml
[11] = water, thermodynamic from solid, H2O, room temperature, sample 5 mg/ml
[12] = High humidity (92.5% RH/25° C.), 0 days
[13] = High humidity (92.5% RH/25° C.), 5 days
[14] = High humidity (92.5% RH/25° C.), 10 days
[15] = High humidity (92.5% RH/25° C.), 37 days
[16] = High temperature (60° C.), 0 days
[17] = High temperature (60° C.), 5 days
[18] = High temperature (60° C.), 10 days
[19] = High temperature (60° C.), 37 days
[20] = Illumination (1.2*10^6 Lux · hr, 200 w · hr/m^2), 0 days
[21] = Illumination (1.2*10^6 Lux · hr, 200 w · hr/m^2), 5 days
[22] = Illumination (1.2*10^6 Lux · hr, 200 w · hr/m^2), 10 days

In the case of `[2H]C([2H])([2H])n1nc2c(c1C#N)-c1cnc(N)c(c1)O[C@H](C)c1cc(F)ccc1C(=O)N(C)C2` [compound A crystal form I, (10R)-7-amino-12-fluoro-2-(methyl-d3)-10,16-dimethyl-15-oxo-10,15,16,17-tetrahydro-2H-8,4-(metheno)pyrazolo[4,3-h][2,5,11]benzoxadiazacyclotetradecine-3-carbonitrile], the Purity % ([1]; 0 days; HPLC) is reported as 99.2%, the Crystal form ([1]; 0 days; XRPD) is reported as “Unchanged” and the Crystal form ([1]; 40° C./75% RH, 7 days, XRPD) is reported as “not changed”. For the same compound, the Purity ([1]; 40° C./75% RH, 7 days; HPLC) was “not changed”, the Purity % ([1]; 40° C./75% RH, 7 days; HPLC) was 99.4% and the Crystal form ([1]; 40° C./75% RH, 7 days; XRPD) was “Unchanged”. The Crystal form ([1]; 60° C., 7 days, XRPD) was “not changed”, the Purity ([1]; 60° C., 7 days; HPLC) was “not changed” and the Purity % ([1]; 60° C., 7 days; HPLC) was 99.3%. For the same compound, the Crystal form ([1]; 60° C., 7 days; XRPD) was “Unchanged”, the “Crystal form before and after the DVS test” value ([2]; XRPD) was “not changed” and the DVS weight gain ([2]; humidity increased from 0% RH to 80% RH, 25° C.) was 0.17%. The solubility at 0.5 h [3, 8] was 170 µg/mL, the solubility at 24 h [3, 8] was 110 µg/mL and the Solubility ([3]; FaSSIF (simulated intestinal fluid in fasted state), fassif, thermodynamic from solid, FaSSIF (simulated intestinal fluid in fasted state), read-out: Solubility) was < 3000 µg/mL. The “Crystal form / crystallinity in the vehicle” value (“Crystal form / crystallinity” for short) ([3]; FaSSIF) was “nearly amorphous”, the solubility at 0.5 h [3, 9] was 550 µg/mL and the solubility at 24 h [3, 9] was 380 µg/mL. For the same compound, the Solubility ([3]; FeSSIF (simulated intestinal fluid in fed state), fessif, thermodynamic from solid, FeSSIF (simulated intestinal fluid in fed state), read-out: Solubility) was < 3000 µg/mL, the “Crystal form / crystallinity” value ([3]; FeSSIF) was “nearly amorphous” and the solubility at 0.5 h [3, 10] was 10900 µg/mL. For the same compound, the solubility at 24 h [3, 10] was 10200 µg/mL, the Solubility ([3]; SGF (simulated gastric fluid), simulated gastric fluid, thermodynamic from solid, SGF (simulated gastric fluid), read-out: Solubility) was > 5000 µg/mL and the Solubility ([3]; water) was < 3000 µg/mL. For the same compound, the “Crystal form / crystallinity” value ([3]; water) was “not changed”, the solubility at 0.5 h [3, 11] was 110 µg/mL and the solubility at 24 h [3, 11] was 95 µg/mL. For the same compound, the Solubility ([3]; water, listed as free base) was “less than 0.2 mg/mL”, the Solubility ([4]; Acetone) was ~246000 µg/mL (≈ 601 mM) and the Solubility ([4]; Acetone, listed as starting material) was “greater than 100 mg/mL”. It also gave a Solubility ([4]; Acetonitrile) of ~183000 µg/mL (≈ 447 mM), a Solubility ([4]; Butanone) of ~173000 µg/mL (≈ 423 mM) and a Solubility ([4]; Dichloromethane) of ~240000 µg/mL (≈ 586 mM). For the same compound, the Solubility ([4]; Dichloromethane, listed as starting material) was “greater than 100 mg/mL”, the Solubility ([4]; Ethanol) was ~21000 µg/mL (≈ 51.3 mM) and the Solubility ([4]; Ethyl acetate) was ~100000 µg/mL (≈ 244 mM). For the same compound, the Solubility ([4]; Isobutanol) was ~1700 µg/mL (≈ 4.15 mM), the Solubility ([4]; Isopropanol) was ~2500 µg/mL (≈ 6.11 mM) and the Solubility ([4]; Isopropanol, listed as starting material) was 1000 to 2000 µg/mL. For the same compound, the Solubility ([4]; Isopropyl acetate) was ~22000 µg/mL (≈ 53.7 mM), the Solubility ([4]; Methanol) was ~190000 µg/mL (≈ 464 mM) and the Solubility ([4]; Methyl tert-butyl ether) was ~2500 µg/mL (≈ 6.11 mM). For the same compound, the Solubility ([4]; Methyl tert-butyl ether, listed as starting material) was 1000 to 2000 µg/mL, the Solubility ([4]; Tetrahydrofuran) was ~215000 µg/mL (≈ 525 mM) and the Solubility ([4]; Tetrahydrofuran, listed as starting material) was “greater than 100 mg/mL”. For the same compound, the Solubility ([4]; acetonitrile, organic solvent or mixture, thermodynamic from solid, Acetonitrile, read-out: Solubility) was > 100000 µg/mL, the Solubility ([4]; butanone, organic solvent or mixture, thermodynamic from solid, Butanone, read-out: Solubility) was > 100000 µg/mL and the Solubility ([4]; ethanol, organic solvent or mixture, thermodynamic from solid, Ethanol, read-out: Solubility) was ~20000 µg/mL (≈ 48.8 mM). For the same compound, the Solubility ([4]; ethyl acetate, organic solvent or mixture, thermodynamic from solid, Ethyl acetate, read-out: Solubility) was > 100000 µg/mL, the Solubility ([4]; isobutanol, organic solvent or mixture, thermodynamic from solid, Isobutanol, read-out: Solubility) was 1000 to 2000 µg/mL (≈ 2.44 to 4.88 mM) and the Solubility ([4]; isopropyl acetate, organic solvent or mixture, thermodynamic from solid, Isopropyl acetate, read-out: Solubility) was ~20000 µg/mL (≈ 48.8 mM). The Solubility ([4]; methanol, organic solvent or mixture, thermodynamic from solid, Methanol, read-out: Solubility) was > 100000 µg/mL, the Solubility ([4]; water) was ~1000 µg/mL (≈ 2.44 mM) and the Solubility ([4]; water, thermodynamic from solid, Water, read-out: Solubility) was 1000 to 2000 µg/mL (≈ 2.44 to 4.88 mM). The Content [5, 12] was 99.9%, the Shape [5, 12] was “White solid” and the Total impurity content [5, 12] was <0.05%. For the same compound, the Content [5, 13] was 99.5%, the Shape [5, 13] was “White solid” and the Total impurity content [5, 13] was <0.05%. The Content [5, 14] was 99.7%, the Shape [5, 14] was “White solid” and the Total impurity content [5, 14] was <0.05%. The Content [5, 15] was 99.4%, the Shape [5, 15] was “White solid” and the Total impurity content [5, 15] was <0.05%. The Content [5, 16] was 99.9%, the Shape [5, 16] was “White solid” and the Total impurity content [5, 16] was <0.05%. For the same compound, the Content [5, 17] was 98.8%, the Shape [5, 17] was “White solid” and the Total impurity content [5, 17] was <0.05%. For the same compound, the Content [5, 18] was 100.4%, the Shape [5, 18] was “White solid” and the Total impurity content [5, 18] was <0.05%. The Content [5, 19] was 99.8%, the Total impurity content [5, 19] was <0.05% and the Content [5, 20] was 99.9%. For the same compound, the Shape [5, 20] was “White solid”, the Total impurity content [5, 20] was <0.05% and the Content [5, 21] was 98.7%. The Total impurity content [5, 21] was <0.05%, the Content [5, 22] was 99.1% and the Total impurity content [5, 22] was <0.05%.
With `[2H]C([2H])([2H])n1nc2c(c1C#N)-c1cnc(N)c(c1)O[C@H](C)c1cc(F)ccc1C(=O)N(C)C2` [compound A crystal form IV, (10R)-7-amino-12-fluoro-2-(methyl-d3)-10,16-dimethyl-15-oxo-10,15,16,17-tetrahydro-2H-8,4-(metheno)pyrazolo[4,3-h][2,5,11]benzoxadiazacyclotetradecine-3-carbonitrile] the “Trans-crystallization on competitive slurrying” value [6] was “trans-crystallized to crystal form I”.
In the case of `[2H]C([2H])([2H])n1nc2c(c1C#N)-c1cnc(N)c(c1)O[C@H](C)c1cc(F)ccc1C(=O)N(C)C2` [compound A crystal form V, (10R)-7-amino-12-fluoro-2-(methyl-d3)-10,16-dimethyl-15-oxo-10,15,16,17-tetrahydro-2H-8,4-(metheno)pyrazolo[4,3-h][2,5,11]benzoxadiazacyclotetradecine-3-carbonitrile], the “Crystal form after heating” value [7] is reported as “transformed into crystal form I”.
